Measured values taken from ChEMBL document CHEMBL1123316, “Synthesis and biological activity of substance P C-terminal hexapeptide analogues: structure-activity studies” (1986).
Where a SMILES comes first, the peptide text is derived from it. [ ]: non-standard residue; d: D form. Orn = NCCC[C@H](N)C(=O)O

Key:
[1] = species on record: Cavia porcellus; assay: In vitro potency as spasmogen relative to SP against guinea pig ileum
[2] = species on record: Rattus norvegicus; assay: In vitro potency as spasmogen relative to SP against rat colon muscularis mucosae

CSCC[C@H](NC(=O)[C@H](CC(C)C)NC(=O)CNC(=O)[C@H](Cc1ccccc1)NC(=O)[C@H](Cc1ccccc1)NC(=O)[C@@H](N)CCCN)C(N)=O (H-[Orn]FFGLM-NH2)
Relative potency [1]: 0.39 | Relative potency [2]: 0.36

H-TFFGLM-NH2
Relative potency [1]: 0.021 | Relative potency [2]: 0.056

H-VFFGLM-NH2
Relative potency [1]: 0.067 | Relative potency [2]: 0.15

H-QFFGLM-NH2
Relative potency [1]: 0.3 | Relative potency [2]: 0.076

CO[C@H](C)[C@H](N)C(=O)N[C@@H](Cc1ccccc1)C(=O)N[C@@H](Cc1ccccc1)C(=O)NCC(=O)N[C@@H](CC(C)C)C(=O)N[C@@H](CCSC)C(N)=O (H-T(Me)FFGLM-NH2)
Relative potency [1]: 0.066 | Relative potency [2]: 0.16
